Like-named read-outs stand apart in the source and are kept apart here.
What was measured:
[1] = target: full-length human RORγt (Homo sapiens (Human), UniProt P51449); assay: RORγt (full-length human) reporter assay, Conditions B or C; format: cell-based; settings: for inhibition at 3 µM: at 3 μM compound concentration, read-out: RORγt (FL) Reporter Assay B or C, % inhibition; for RORγt (FL) Reporter Assay B or C, % inhibition (value marked *): marked *: footnote not given
In short: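 Readout is dual luciferase: firefly (GAL4-driven) normalized to DMSO-only and saturating-reference controls, then to CMV-Renilla. Full-length human RORγt fused to GAL4-DBD was transiently expressed in HEK293T; compound exposure ran overnight (16-20 h) starting 4-6 h after transfection, final FBS 1.3%, DMSO 0.1%.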

[2] = target: human RORγt ligand binding domain (RORγt LBD) (Homo sapiens (Human), UniProt P51449); assay: RORγt ThermoFluor® assay (thermal shift binding); settings: read-out: ThermoFluor® Assay, Kd
Chain of human RORγt ligand binding domain (RORγt LBD) (P51449 other isoform, or with tags, fused parts or gaps): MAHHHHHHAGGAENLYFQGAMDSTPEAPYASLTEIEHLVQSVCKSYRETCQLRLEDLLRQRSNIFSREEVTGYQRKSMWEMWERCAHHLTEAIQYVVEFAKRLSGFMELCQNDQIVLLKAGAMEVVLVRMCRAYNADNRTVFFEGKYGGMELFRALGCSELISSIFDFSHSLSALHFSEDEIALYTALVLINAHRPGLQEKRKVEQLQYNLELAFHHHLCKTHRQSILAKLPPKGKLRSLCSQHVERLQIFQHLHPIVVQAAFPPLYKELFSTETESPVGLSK
In short: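 Binding was inferred from thermal stabilisation (ΔTm) of the E. coli-expressed RORγt LBD (0.065 mg/mL), monitored by 1,8-ANS (60 μM) emission at 500 nm during a 1 °C/min ramp. Buffer was Hepes 100 mM pH 7.0 with NaCl, GSH and Tween-20.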

[3] = read-out: RORγt (FL) Reporter Assay B or C, IC50
[4] = Conditions B or C, read-out: RORγt (FL) Reporter Assay B or C, IC50

Chain of full-length human RORγt (P51449 other isoform, or with tags, fused parts or gaps): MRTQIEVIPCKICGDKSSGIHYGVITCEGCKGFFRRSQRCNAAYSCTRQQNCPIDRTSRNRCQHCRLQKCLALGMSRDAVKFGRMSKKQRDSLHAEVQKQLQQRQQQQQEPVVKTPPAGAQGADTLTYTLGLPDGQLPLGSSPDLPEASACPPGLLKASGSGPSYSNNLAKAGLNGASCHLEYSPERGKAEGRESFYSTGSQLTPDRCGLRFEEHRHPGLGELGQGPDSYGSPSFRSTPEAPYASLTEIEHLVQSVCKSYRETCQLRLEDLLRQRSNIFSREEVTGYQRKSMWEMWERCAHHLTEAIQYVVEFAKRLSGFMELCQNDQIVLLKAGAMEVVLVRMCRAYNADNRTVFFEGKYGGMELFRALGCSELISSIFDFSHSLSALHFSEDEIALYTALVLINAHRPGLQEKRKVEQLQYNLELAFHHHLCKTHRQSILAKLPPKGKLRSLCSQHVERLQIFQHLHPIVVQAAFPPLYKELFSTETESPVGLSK

Row | Structure (SMILES) | inhibition at 3 µM [1] [%] | IC50 [1, 3] [nM] | Kd [2] [nM] | IC50 [1, 4] [nM] | inhibition at 6 µM ([1]; read-out: RORγt (FL) Reporter Assay B or C, % inhibition @ 6 μM, Conditions B or C, @ 6 μM) [%] | RORγt (FL) Reporter Assay B or C, % inhibition (value marked *) ([1]; Conditions B or C) | IC50 ([1]; RORγt (FL) Reporter Assay B or C, IC50) [nM]
1 | C[C@H](CO)NC(=O)c1nc(C(=O)N2CC(F)(F)C[C@@H]2C)c(-c2cnc(N[C@@H](C)C(F)(F)F)cc2C(F)F)s1 [Example 447, 4-[(2S)-4,4-Difluoro-2-methyl-pyrrolidine-1-carbonyl]-5-[4-(difluoromethyl)-6-[[(1S)-2,2,2-trifluoro-1-methyl-ethyl]amino]-3-pyridyl]-N-[(1R)-2-hydroxy-1-methyl-ethyl]thiazole-2-carboxamide] | 89 | 75 | 2.1 |  |  |  | 
2 | CC(Nc1cc(C(F)(F)F)c(-c2sc(C(=O)NCC(C)(C)O)nc2C(=O)N2CCCC[C@@H]2C)cn1)C(F)(F)F (stereo partly drawn) [Example 33, N-(2-Hydroxy-2-methylpropyl)-4-((S)-2-methylpiperidine-1-carbonyl)-5-(4-(trifluoromethyl)-6-((1,1,1-trifluoropropan-2-yl)amino)pyridin-3-yl)thiazole-2-carboxamide] |  |  | 0.43 | 5.2 | 109 |  | 
3 | C[C@@H](Nc1cc(C(F)(F)F)c(-c2sc(C(=O)NCC(C)(C)O)nc2C(=O)N2CCC[C@@H]2C)cn1)C1CC1 [Example 48, 5-(6-(((R)-1-Cyclopropylethyl)amino)-4-(trifluoromethyl)pyridin-3-yl)-N-(2-hydroxy-2-methylpropyl)-4-((S)-2-methylpyrrolidine-1-carbonyl)thiazole-2-carboxamide] |  |  | 11 | 23 |  | 111* % | 
4 | C[C@H](NC(=O)c1nc(C(=O)N2C3CCC2CC3)c(-c2cnc(N[C@@H](C3CC3)C(F)(F)F)cc2C(F)F)s1)C(C)(C)O [Example 317, 4-((1s,4s)-7-Azabicyclo[2.2.1]heptane-7-carbonyl)-5-(6-(((S)-1-cyclopropyl-2,2,2-trifluoroethyl)amino)-4-(difluoromethyl)pyridin-3-yl)-N—((S)-3-hydroxy-3-methylbutan-2-yl)thiazole-2-carboxamide] | 106 |  | 2.4 |  |  |  | 14
5 | C[C@H]1CCCN1C(=O)c1nc(C(=O)NCC(C)(C)O)sc1-c1cnc(NCC2CCC2)cc1C(F)F [Example 301, (S)-5-(6-((Cyclobutylmethyl)amino)-4-(difluoromethyl)pyridine-3-yl)-N-(2-hydroxy-2-methylpropyl)-4-(2-methylpyrrolidine-1-carbonyl)thiazole-2-carboxamide] | 95 | 84 | 30 |  |  |  | 
6 | CC[C@H](Nc1cc(C(F)F)c(-c2sc(C(=O)N[C@@H]3CCC[C@H]3O)nc2C(=O)N2C3CCC2CC3)cn1)C(F)(F)F [Example 225, 4-((1s,4s)-7-Azabicyclo[2.2.1]heptane-7-carbonyl)-5-(4-(difluoromethyl)-6-(((1S)-1-(trifluoromethyl)propyl)amino)-3-pyridyl)-N-((1R,2R)-2-hydroxycyclopentyl)thiazole-2-carboxamide] |  |  | 0.95 | 6.8 |  | 110* % | 
7 | C[C@H]1CCCN1C(=O)c1nc(C(=O)NCC(C)(C)O)sc1-c1cnc(NC(C)(C)C2CC2)cc1C(F)(F)F [Example 56, (S)-5-(6-((2-Cyclopropylpropan-2-yl)amino)-4-(trifluoromethyl)pyridin-3-yl)-N-(2-hydroxy-2-methylpropyl)-4-(2-methylpyrrolidine-1-carbonyl)thiazole-2-carboxamide] |  |  | 0.34 | 3.6 |  | 106* % | 

More lines, in order of falling Kd [2], values ahead:

Row | inhibition at 3 µM [1] [%] | IC50 [1, 3] [nM] | Kd [2] [nM] | IC50 [1, 4] [nM] | inhibition at 6 µM ([1]; read-out: RORγt (FL) Reporter Assay B or C, % inhibition @ 6 μM, Conditions B or C, @ 6 μM) [%] | RORγt (FL) Reporter Assay B or C, % inhibition (value marked *) ([1]; Conditions B or C) | Structure (SMILES) | IC50 ([1]; RORγt (FL) Reporter Assay B or C, IC50) [nM]
8 |  |  | 73 | 32 |  | 101* % | C[C@H]1CCCN1C(=O)c1nc(C(=O)N[C@H]2C[C@H](O)C2)sc1-c1cnc(NC2CCCC2)cc1C(F)F [Example 74, 5-(6-(Cyclopentylamino)-4-(difluoromethyl)pyridin-3-yl)-N-((1r,3s)-3-hydroxycyclobutyl)-4-((S)-2-methylpyrrolidine-1-carbonyl)thiazole-2-carboxamide] | 
9 |  |  | 12 | 100 |  | 107* % | C[C@H](Nc1cc(C(F)F)c(-c2sc(C(=O)N[C@@H]3COC[C@H]3O)nc2C(=O)N2CCC[C@@H]2C)cn1)C(F)(F)F [Example 215, 5-(4-(Difluoromethyl)-6-(((1S)-2,2,2-trifluoro-1-methyl-ethyl)amino)-3-pyridyl)-N-((3R,4S)-4-hydroxytetrahydrofuran-3-yl)-4-((2S)-2-methylpyrrolidine-1-carbonyl)thiazole-2-carboxamide] | 
10 | 103 | 24 | 8.1 |  |  |  | C[C@H]1CCCN1C(=O)c1nc(C(=O)N2CC(CO)C2)sc1-c1cnc(NC(C)(C)C)cc1C(F)(F)F [Example 249, [5-[6-(tert-Butylamino)-4-(trifluoromethyl)-3-pyridyl]-2-[3-(hydroxymethyl)azetidine-1-carbonyl]thiazol-4-yl]-[(2S)-2-methylpyrrolidin-1-yl]methanone] | 
11 |  |  | 5.8 | 55 |  | 95* % | C[C@H]1CCCN1C(=O)c1nc(C(=O)NCC(C)(C)O)sc1-c1cnc(NC2(C)CCC2)cc1C(F)F [Example 173] | 
12 | 106 | 5.7 | 4 |  |  |  | C[C@H]1CCCN1C(=O)c1nc(C(=O)NCC(O)(C(F)(F)F)C(F)(F)F)sc1-c1cnc(NC(C)(C)C)cc1C(F)(F)F [Example 271, 5-[6-(tert-Butylamino)-4-(trifluoromethyl)-3-pyridyl]-4-[(2S)-2-methylpyrrolidine-1-carbonyl]-N-[3,3,3-trifluoro-2-hydroxy-2-(trifluoromethyl)propyl]thiazole-2-carboxamide] | 
13 | 113 | 11 | 2.4 |  |  |  | C[C@H]1CC(F)(F)CN1C(=O)c1nc(C(=O)NCC(C)(C)O)sc1-c1cnc(NCC2(C)CC2)cc1C(F)(F)F [Example 277, 4-[(2S)-4,4-Difluoro-2-methyl-pyrrolidine-1-carbonyl]-N-(2-hydroxy-2-methyl-propyl)-5-[6-[(1-methylcyclopropyl)methylamino]-4-(trifluoromethyl)-3-pyridyl]thiazole-2-carboxamide] | 
14 |  |  | 2.4 | 59 |  | 100* % | C[C@H]1CCCN1C(=O)c1nc(C(=O)NCC(C)(C)O)sc1-c1cnc(NCC2(C(F)(F)F)CC2)cc1C(F)(F)F [Example 125] | 
15 |  |  | 2.2 | 26 |  | 112* % | C[C@H](Nc1cc(C(F)(F)F)c(-c2sc(C(=O)NCC(C)(C)O)nc2C(=O)N2CC(F)(F)C[C@@H]2C)cn1)C(F)(F)F [Example 110, 4-((S)-4,4-Difluoro-2-methylpyrrolidine-1-carbonyl)-N-(2-hydroxy-2-methylpropyl)-5-(4-(trifluoromethyl)-6-(((S)-1,1,1-trifluoropropan-2-yl)amino)pyridin-3-yl)thiazole-2-carboxamide] | 
16 | 101 | 35 | 1.4 |  |  |  | C[C@H]1CC(F)(F)CN1C(=O)c1nc(C(=O)N[C@H](C)C(C)(C)O)sc1-c1cnc(N[C@@H](C2CC2)C(F)(F)F)cc1C(F)F [Example 314, 5-(6-(((S)-1-Cyclopropyl-2,2,2-trifluoroethyl)amino)-4-(difluoromethyl)pyridin-3-yl)-4-((S)-4,4-difluoro-2-methylpyrrolidine-1-carbonyl)-N—((R)-3-hydroxy-3-methylbutan-2-yl)thiazole-2-carboxamide] | 

From patent US10975068B2, “6-aminopyridin-3-yl thiazoles as modulators of RORγT” (Janssen Pharmaceutica NV, priority 2016, dated 2021)
